# The supplement of paper PMC10307832
# Key:
# Experiment in all cases: relative viability (nuclei count vs DMSO), 5 days (fraction); higher = more cells survive
# NCI-H1666 = test system: NCI-H1666
# Summary of the method: (§1)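 Lung cancer cell lines in 1536-well plates got either a single drug or a fixed anchor-drug dose together with five library-drug doses (not always all listed) in √10 steps, by pin tool, on the day after seeding. Nuclei were counted after 5 days, and relative viability is the treated-to-vehicle ratio of nuclei counts. Values are medians of duplicate plates.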
# ChaGo-K-1 = test system: ChaGo-K-1
# Summary of the method: as §1
# HCC-15 = test system: HCC-15
# Summary of the method: as §1
# LC-2-ad = test system: LC-2-ad
# Summary of the method: as §1
# NCI-H661 = test system: NCI-H661
# Summary of the method: as §1
# NCI-H1651 = test system: NCI-H1651
# Summary of the method: as §1
# UMC-11 = test system: UMC-11
# Summary of the method: as §1
# NCI-H650 = test system: NCI-H650
# Summary of the method: as §1
# LU99A = test system: LU99A
# Summary of the method: as §1
# LXF-289 = test system: LXF-289
# Summary of the method: as §1
# SK-MES-1 = test system: SK-MES-1
# Summary of the method: as §1
# NCI-H322M = test system: NCI-H322M
# Summary of the method: as §1
# NCI-H1944 = test system: NCI-H1944
# Summary of the method: as §1
# NCI-H2342 = test system: NCI-H2342
# Summary of the method: as §1
# PC-3 [JPC-3] = test system: PC-3 [JPC-3]
# Summary of the method: as §1
# H3255 = test system: H3255
# Summary of the method: as §1
# LK-2 = test system: LK-2
# Summary of the method: as §1
# LCLC-97TM1 = test system: LCLC-97TM1
# Summary of the method: as §1
# NCI-H838 = test system: NCI-H838
# Summary of the method: as §1
# NCI-H596 = test system: NCI-H596
# Summary of the method: as §1
# HCC-78 = test system: HCC-78
# Summary of the method: as §1
# NCI-H2087 = test system: NCI-H2087
# Summary of the method: as §1
# NCI-H358 = test system: NCI-H358
# Summary of the method: as §1
# BEN = test system: BEN
# Summary of the method: as §1
structure (smiles),measurement,setting,value
CC(C)Oc1cc(Nc2nc(N[C@@H](C)c3ccc(F)cn3)ncc2Cl)n[nH]1 [AZ23] + Cc1cc(Nc2cc(N3CCN(C)CC3)nc(Sc3ccc(NC(=O)C4CC4)cc3)n2)n[nH]1 [Tozasertib] (partner 0.1 µM),relative viability,NCI-H1666; first compound 0.01 µM,0.558
same,relative viability,NCI-H1666; first compound 0.03162 µM,0.583
same,relative viability,NCI-H1666; first compound 0.3162 µM,0.545
same,relative viability,ChaGo-K-1; first compound 0.01 µM,0.234
same,relative viability,ChaGo-K-1; first compound 0.03162 µM,0.234
same,relative viability,ChaGo-K-1; first compound 0.3162 µM,0.235
same,relative viability,HCC-15; first compound 0.01 µM,0.513
same,relative viability,HCC-15; first compound 0.03162 µM,0.498
same,relative viability,HCC-15; first compound 0.3162 µM,0.631
same,relative viability,LC-2-ad; first compound 0.01 µM,0.467
same,relative viability,LC-2-ad; first compound 0.03162 µM,0.446
same,relative viability,LC-2-ad; first compound 0.3162 µM,0.452
same,relative viability,NCI-H661; first compound 0.01 µM,0.366
same,relative viability,NCI-H661; first compound 0.03162 µM,0.354
same,relative viability,NCI-H661; first compound 0.3162 µM,0.353
same,relative viability,NCI-H1651; first compound 0.03162 µM,0.885
same,relative viability,NCI-H1651; first compound 0.3162 µM,0.71
same,relative viability,UMC-11; first compound 0.01 µM,0.181
same,relative viability,UMC-11; first compound 0.03162 µM,0.197
same,relative viability,UMC-11; first compound 0.3162 µM,0.19
same,relative viability,NCI-H650; first compound 0.01 µM,0.728
same,relative viability,NCI-H650; first compound 0.03162 µM,0.75
same,relative viability,NCI-H650; first compound 0.3162 µM,0.802
same,relative viability,LU99A; first compound 0.01 µM,0.243
same,relative viability,LU99A; first compound 0.03162 µM,0.286
same,relative viability,LU99A; first compound 0.3162 µM,0.296
same,relative viability,LXF-289; first compound 0.01 µM,0.222
same,relative viability,LXF-289; first compound 0.03162 µM,0.205
same,relative viability,LXF-289; first compound 0.3162 µM,0.204
same,relative viability,SK-MES-1; first compound 0.03162 µM,1.1
same,relative viability,SK-MES-1; first compound 0.3162 µM,0.942
same,relative viability,NCI-H322M; first compound 0.03162 µM,0.501
same,relative viability,NCI-H322M; first compound 0.3162 µM,0.434
same,relative viability,NCI-H1944; first compound 0.01 µM,0.279
same,relative viability,NCI-H1944; first compound 0.03162 µM,0.247
same,relative viability,NCI-H1944; first compound 0.3162 µM,0.243
same,relative viability,NCI-H2342; first compound 0.01 µM,0.482
same,relative viability,NCI-H2342; first compound 0.03162 µM,0.483
same,relative viability,NCI-H2342; first compound 0.3162 µM,0.455
same,relative viability,PC-3 [JPC-3]; first compound 0.01 µM,1.03
same,relative viability,PC-3 [JPC-3]; first compound 0.03162 µM,0.87
same,relative viability,PC-3 [JPC-3]; first compound 0.3162 µM,0.959
same,relative viability,H3255; first compound 0.01 µM,0.662
same,relative viability,H3255; first compound 0.03162 µM,0.821
same,relative viability,H3255; first compound 0.3162 µM,0.675
same,relative viability,LK-2; first compound 0.01 µM,0.184
same,relative viability,LK-2; first compound 0.03162 µM,0.222
same,relative viability,LK-2; first compound 0.3162 µM,0.195
same,relative viability,LCLC-97TM1; first compound 0.01 µM,0.186
same,relative viability,LCLC-97TM1; first compound 0.03162 µM,0.266
same,relative viability,LCLC-97TM1; first compound 0.3162 µM,0.194
same,relative viability,NCI-H838; first compound 0.01 µM,0.267
same,relative viability,NCI-H838; first compound 0.03162 µM,0.301
same,relative viability,NCI-H838; first compound 0.3162 µM,0.274
same,relative viability,NCI-H596; first compound 0.01 µM,1
same,relative viability,NCI-H596; first compound 0.03162 µM,0.826
same,relative viability,NCI-H596; first compound 0.3162 µM,0.827
same,relative viability,HCC-78; first compound 0.01 µM,0.344
same,relative viability,HCC-78; first compound 0.03162 µM,0.482
same,relative viability,HCC-78; first compound 0.3162 µM,0.334
same,relative viability,NCI-H2087; first compound 0.01 µM,0.271
same,relative viability,NCI-H2087; first compound 0.03162 µM,0.245
same,relative viability,NCI-H2087; first compound 0.3162 µM,0.245
same,relative viability,NCI-H358; first compound 0.01 µM,0.101
same,relative viability,NCI-H358; first compound 0.03162 µM,0.114
same,relative viability,NCI-H358; first compound 0.3162 µM,0.107
same,relative viability,BEN; first compound 0.01 µM,0.483
same,relative viability,BEN; first compound 0.03162 µM,0.544
same,relative viability,BEN; first compound 0.3162 µM,0.527
